The assay has as its system CD2F1 mice, L1210 leukemia ip, survival T/C. Description: NCI In Vivo Anticancer Drug Screen. Data for tumor model L1210 Leukemia (intraperitoneal) in CD2F1 (CDF1) mice. The following applies: endpoint: mean survival time, higher = longer survival. In a few lines:
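Transplantable tumor in mice; compound-treated vs vehicle-treated groups. Read-out = treated/control ratio of the measured endpoint.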

The mark [1] stands for this setting: dose: 100.0 mg/kg/injection, schedule: Q01DX001 (ip), vehicle: saline with Tween-80.
The mark [2] stands for this setting: dose: 200.0 mg/kg/injection, schedule: Q01DX001 (ip), vehicle: saline with Tween-80.
The mark [3] stands for this setting: dose: 400.0 mg/kg/injection, schedule: Q01DX001 (ip), vehicle: saline with Tween-80.
[4] abbreviates: dose: 100.0 mg/kg/injection, schedule: Q04DX003 (ip), vehicle: saline with Tween-80.
The mark [5] stands for this setting: dose: 200.0 mg/kg/injection, schedule: Q04DX003 (ip), vehicle: saline with Tween-80.
Where [6] appears, read: dose: 400.0 mg/kg/injection, schedule: Q04DX003 (ip), vehicle: saline with Tween-80.
Setting [7] is: dose: 100.0 mg/kg/injection, schedule: Q01DX009 (ip), vehicle: saline with Tween-80.
[8] abbreviates: dose: 200.0 mg/kg/injection, schedule: Q01DX009 (ip), vehicle: saline with Tween-80.
Setting [9] is: dose: 400.0 mg/kg/injection, schedule: Q01DX009 (ip), vehicle: saline with Tween-80.
[10] abbreviates: dose: 12.5 mg/kg/injection, schedule: Q04DX003 (ip), vehicle: saline with Tween-80.

Several values for one entry are separate records, joined by “and”; a condition that tells them apart may be missing. Identical values can stand only once. Toxic doses and inconclusive results are not listed.

For the compound `O=C(NCCNC(c1ccccc1)C(NCCNC(=O)c1ccccc1)c1ccccc1)c1ccccc1` (configuration not stated), the T/C under setting [1] is 92 % of control, the T/C under setting [2] is 96 % of control and the T/C under setting [3] is 92 % of control.

Take `N#CC(Cl)(Cl)C(N)=O`: the T/C reads like this: (dose: 1.56 mg/kg/injection, schedule: Q04DX002 (ip), vehicle: saline) 102 % of control; (dose: 3.13 mg/kg/injection, schedule: Q04DX002 (ip), vehicle: saline) 92 % of control; (dose: 6.25 mg/kg/injection, schedule: Q04DX002 (ip), vehicle: saline) 98 % of control.

`O=C(Nc1ccc2c(c1)Cc1cc(Br)ccc1-2)C(F)(F)F`: the T/C reads like this: under setting [4], 101 % of control; under setting [5], 97 % of control; under setting [6], 101 % of control.

In the case of `COc1ccc(NC2=C(C)C(=O)C3=C(C2=O)[C@H](COC(N)=O)[C@]2(OC)[C@@H]4N[C@@H]4CN32)cc1`, the T/C (dose: 1.5 mg/kg/injection, schedule: Q01DX001 (ip), vehicle: water) is 107 % of control; the T/C (dose: 3.0 mg/kg/injection, schedule: Q01DX001 (ip), vehicle: water) is 118 % of control and 110 % of control; the T/C (dose: 6.0 mg/kg/injection, schedule: Q01DX001 (ip), vehicle: water) is 117 % of control and 111 % of control; the T/C (dose: 12.0 mg/kg/injection, schedule: Q01DX001 (ip), vehicle: water) is 124 % of control; the T/C (dose: 24.0 mg/kg/injection, schedule: Q01DX001 (ip), vehicle: water) was 153 % of control; the T/C (dose: 48.0 mg/kg/injection, schedule: Q01DX001 (ip), vehicle: water) was 124 % of control.

Consider `CCC(C)C(C(=O)O)c1ccccc1` (configuration not stated), for which the T/C was 104 % of control under setting [7], 101 % of control under setting [8] and 98 % of control under setting [9].

For the compound `O=C(CCCl)c1ccccc1`, the T/C runs as follows: (dose: 25.0 mg/kg/injection, schedule: Q01DX009 (ip), vehicle: other) 104 % of control; (dose: 50.0 mg/kg/injection, schedule: Q01DX009 (ip), vehicle: other) 100 % of control; (dose: 100.0 mg/kg/injection, schedule: Q01DX009 (ip), vehicle: other) 92 % of control and 96 % of control.

On to `C=COCCN1CCN(CCCN2c3ccccc3Sc3ccc(C(F)(F)F)cc32)CC1`, for which the T/C runs as follows: under setting [10], 113 % of control; (dose: 25.0 mg/kg/injection, schedule: Q04DX003 (ip), vehicle: saline with Tween-80) 113 % of control.

Take `O=C(N/N=C\C(O)C(O)C(O)C(O)CO)c1ccccc1` (configuration not stated): the T/C is, setting by setting: (dose: 75.0 mg/kg/injection, schedule: Q01DX001 (ip), vehicle: saline) 100 % of control; (dose: 150.0 mg/kg/injection, schedule: Q01DX001 (ip), vehicle: saline) 104 % of control; (dose: 300.0 mg/kg/injection, schedule: Q01DX001 (ip), vehicle: saline) 106 % of control.

Regarding `Cc1ccc(-c2nc(SCc3ccc(Cl)cc3)[nH]c(=O)c2CCO)cc1`, the T/C reads like this: (dose: 100.0 mg/kg/injection, schedule: Q04DX003 (ip), vehicle: Klucel (hydroxypropylcellulose) (HPC)) 96 % of control; (dose: 200.0 mg/kg/injection, schedule: Q04DX003 (ip), vehicle: Klucel (hydroxypropylcellulose) (HPC)) 87 % of control.

For `C=COCC(C)C` (tested in a mixture with another compound), the T/C is, setting by setting: (dose: 0.78 mg/kg/injection, schedule: Q01DX009 (ip), vehicle: Klucel (hydroxypropylcellulose) (HPC)) 93 % of control; (dose: 1.56 mg/kg/injection, schedule: Q01DX009 (ip), vehicle: Klucel (hydroxypropylcellulose) (HPC)) 90 % of control; (dose: 1.56 mg/kg/injection, schedule: Q01DX009 (ip), vehicle: saline with Tween-80) 86 % of control; (dose: 1.56 mg/kg/injection, schedule: Q04DX003 (ip), vehicle: other) 109 % of control; (dose: 3.12 mg/kg/injection, schedule: Q01DX009 (ip), vehicle: Klucel (hydroxypropylcellulose) (HPC)) 88 % of control; (dose: 3.12 mg/kg/injection, schedule: Q04DX003 (ip), vehicle: other) 91 % of control. For the same compound, the T/C by setting is: (dose: 3.13 mg/kg/injection, schedule: Q01DX009 (ip), vehicle: saline with Tween-80) 92 % of control; (dose: 4.67 mg/kg/injection, schedule: Q01DX009 (ip), vehicle: Klucel (hydroxypropylcellulose) (HPC)) 98 % of control; (dose: 6.25 mg/kg/injection, schedule: Q01DX009 (ip), vehicle: saline with Tween-80) 94 % of control; (dose: 7.09 mg/kg/injection, schedule: Q01DX009 (ip), vehicle: Klucel (hydroxypropylcellulose) (HPC)) 98 % of control; (dose: 10.6 mg/kg/injection, schedule: Q01DX009 (ip), vehicle: Klucel (hydroxypropylcellulose) (HPC)) 93 % of control; under setting [10], 87 % of control. Also, the T/C was 96 % of control (dose: 15.8 mg/kg/injection, schedule: Q01DX009 (ip), vehicle: alcohol); 111 % of control (dose: 18.8 mg/kg/injection, schedule: Q01DX009 (ip), vehicle: saline); 88 % of control (dose: 24.0 mg/kg/injection, schedule: Q01DX009 (ip), vehicle: alcohol); 97 % of control (dose: 35.0 mg/kg/injection, schedule: Q01DX009 (ip), vehicle: alcohol); 111 % of control (dose: 37.5 mg/kg/injection, schedule: Q01DX009 (ip), vehicle: saline); 113 % of control under setting [1]. Further, the T/C under setting [2] is 109 % of control and the T/C under setting [3] was 95 % of control.

With `O=C(CNC(=O)Nc1ccc(F)cc1)NNC(=O)Nc1ccc(Cl)c([N+](=O)[O-])c1`, the T/C is 92 % of control under setting [8] and 88 % of control under setting [9].

As to `COc1ccc(CCNC(=S)NN)cc1OC`, the T/C is 106 % of control (dose: 25.0 mg/kg/injection, schedule: Q04DX002 (ip), vehicle: saline with Tween-80); 95 % of control (dose: 50.0 mg/kg/injection, schedule: Q04DX002 (ip), vehicle: saline with Tween-80); 114 % of control (dose: 100.0 mg/kg/injection, schedule: Q04DX002 (ip), vehicle: saline with Tween-80); 103 % of control (dose: 200.0 mg/kg/injection, schedule: Q04DX002 (ip), vehicle: saline with Tween-80).

As for `O=C(Nc1nc(-c2ccccc2)cs1)Nc1cccc(Cl)c1Cl`, the T/C is 101 % of control (dose: 50.0 mg/kg/injection, schedule: Q01DX009 (ip), vehicle: saline with Tween-80); 90 % of control under setting [7]; 97 % of control under setting [8].

Take `CCO[Si](C)(CCCOCC1CO1)OCC` (configuration not stated): the T/C was 102 % of control (dose: 50.0 mg/kg/injection, schedule: Q01DX009 (ip), vehicle: Klucel (hydroxypropylcellulose) (HPC)); 100 % of control (dose: 100.0 mg/kg/injection, schedule: Q01DX009 (ip), vehicle: Klucel (hydroxypropylcellulose) (HPC)); 94 % of control (dose: 200.0 mg/kg/injection, schedule: Q01DX009 (ip), vehicle: Klucel (hydroxypropylcellulose) (HPC)).

With `CSCC(N)C(=O)O` (configuration not stated), the T/C is 103 % of control (dose: 100.0 mg/kg/injection, schedule: Q01DX009 (ip), vehicle: saline); 103 % of control (dose: 200.0 mg/kg/injection, schedule: Q01DX009 (ip), vehicle: saline); 97 % of control (dose: 400.0 mg/kg/injection, schedule: Q01DX009 (ip), vehicle: saline).

`C=C(C)C(=O)OCC(O)C[N+](C)(C)C` (configuration not stated): the T/C runs as follows: (dose: 50.0 mg/kg/injection, schedule: Q04DX003 (ip), vehicle: saline with Tween-80) 96 % of control; under setting [4], 87 % of control.

Consider `Cc1c(O)c(=O)n(-c2ccccc2)n1C`, for which the T/C under setting [4] is 96 % of control, the T/C under setting [5] is 93 % of control and the T/C under setting [6] was 96 % of control.

As for `N=c1sc2ccccc2n1CC(=O)O`, the T/C under setting [1] was 100 % of control.

For `CC(=O)Nc1cccc(OCCOc2ccccc2[N+](=O)[O-])c1`, the T/C (dose: 100.0 mg/kg/injection, schedule: Q04DX002 (ip), vehicle: Klucel (hydroxypropylcellulose) (HPC)) is 95 % of control; the T/C (dose: 200.0 mg/kg/injection, schedule: Q04DX002 (ip), vehicle: Klucel (hydroxypropylcellulose) (HPC)) was 107 % of control; the T/C (dose: 400.0 mg/kg/injection, schedule: Q04DX002 (ip), vehicle: Klucel (hydroxypropylcellulose) (HPC)) was 103 % of control.

Values taken from PubChem BioAssay AID256 (DTP/NCI, 2004).
